This is an account of results in PubChem BioAssay AID2305 (GlaxoSmithKline (GSK), 2010).

The test relates to P. falciparum 3D7 growth, pLDH absorbance. As to the kind of experiment: P. falciparum 3D7 growth inhibition, dose response, strain 3D7 (AID 2305).

As usually defined, the IC50 is the midpoint of a concentration-inhibition curve.

`CC(C)n1c(CC2CCN(CC3CCN(C(=O)/C=C/c4ccc(Cl)c(Cl)c4)CC3)CC2)nc2ccccc21` displayed an IC50 of 0.61 µM.

Molecule `NC(N)=NC(=O)Nc1cc(Cl)c(Cl)c(C(F)(F)F)c1` gave an IC50 of 0.61 µM.

`COc1cc(NC(=O)c2sc(-c3ccc(Cl)cc3)cc2NC(=O)c2ccncc2)ccc1OCCN1CCCC1` displayed an IC50 of 0.03 µM.

In the case of `O=C(/C=C/c1ccc(Cl)cc1)NCCCCCN1CCC(C(=O)Nc2ccc(Cl)c(Cl)c2)CC1`, the IC50 is 0.77 µM.

`Cc1cc(N)nc2ccc(-c3ccc(CN)cc3)cc12` showed an IC50 of 0.62 µM.

As for `Cc1ccccc1C(=O)Nc1cccc(-c2nc3ncccn3c2C)c1`, the IC50 is 0.76 µM.

Consider `COc1ccc(C(=O)N2CCC3(CC2)C(=O)N(CC(=O)NC2CCCCC2)CN3c2ccccc2)c(OC)c1`, for which the IC50 is 0.22 µM.

`COc1ccccc1/C=C/C(=O)N(C)C1CCN(CCCCCNC(=O)/C=C/c2ccc(Cl)c(Cl)c2)CC1` registered an IC50 of 0.44 µM.

In turn, `COc1cc(Cc2cnc(N)nc2N)cc(OCCCCCC(N)=O)c1OC` gave an IC50 of 1.19 µM.

Regarding `Cc1cccc2[nH]c(-c3cccc(-c4cccc(CNCCc5cccn5C)c4)c3)nc12`, the IC50 amounted to 0.73 µM.

For the molecule `CN(C)c1cccc(NC(=O)N[C@H]2N=C(c3ccccc3)c3ccccc3N(CC(=O)N3CCCC3)C2=O)c1`, the IC50 is 0.25 µM.

Take `CS(=O)(=O)NCCCNCc1ccc(-c2cccc(-c3nc4ccc(F)cc4[nH]3)c2)cc1`: the IC50 came out at 0.8 µM.

On to `Fc1ccc2nc(-c3ccc(-c4ccc(CNCC5CCCO5)cc4)cc3)[nH]c2c1` (centres undefined), for which the IC50 came to 0.44 µM.

`CC(=O)c1ccc(NC(=O)NNC(=O)c2ccc(CCN3CCC(c4nc(COCC(F)(F)F)c(-c5ccc(F)cc5)o4)CC3)cc2)cc1` came in with an IC50 of 0.83 µM.

`CC1Cc2ccccc2N1S(=O)(=O)c1cc(OCC(F)(F)F)ccc1OCC(F)(F)F` (centres undefined): the IC50 was 0.65 µM.

The molecule `Cn1nccc1C(=O)NCCNCc1cccc(-c2cccc(-c3nc4ccc(F)cc4[nH]3)c2)c1` came in with an IC50 of 0.26 µM.

`COc1cccc(CC(C)NCC(O)c2cccc(Cl)c2)c1` (centres undefined) came in with an IC50 of 1.27 µM.

Turning to `CN1CCC(NCc2cccc(-c3cccc(S(=O)(=O)NCc4ccccc4)c3)c2)CC1`, the IC50 worked out at 0.75 µM.

Consider `CCC(CSC1CCCCC1)N(C)CCN(C)C(CC)CSC1CCCCC1` (centres undefined), for which the IC50 worked out at 0.31 µM.

`CN1CCN(Cc2cc3cc(NC(=O)/C=C/c4cccc(Cl)c4)ccc3s2)CC1` yielded an IC50 of 0.27 µM.

The molecule `Cn1c(=N)cc(-c2cccc(I)c2)c2c(=O)[nH]c(N)nc21` returned an IC50 of 0.27 µM.

Turning to `COC1CCC(C(=O)Nc2ccc(-c3cccc(-c4nc5ccc(C(F)(F)F)cc5[nH]4)c3)cc2)CC1` (centres undefined), the IC50 is 0.55 µM.

Regarding `COc1ccc(Cl)cc1N1CCN(CCCNC(=O)c2ccc(-c3nc4cc(Cl)c(F)cc4[nH]3)cc2)CC1`, the IC50 was found to be 1.06 µM.

With `COc1ccc(-c2cnc(N)c(-c3ccc(O)c(OC)c3)c2)cn1`, the IC50 is 0.88 µM.

In turn, `N#Cc1cc(C(=O)c2cc(Br)ccc2O)cn(-c2cc(Cl)cc(Cl)c2)c1=O` came in with an IC50 of 0.88 µM.

For the molecule `O=C(NCCCCN1CCC(c2ccc3ccccc3c2O)CC1)c1ccc(-c2ccc(Cl)cc2)cc1`, the IC50 was 0.18 µM.

`COc1cc2c(cc1N1C[C@@H](C)N[C@@H](C)C1)N(C(=O)c1ccc(-c3ccc(-c4ncc[nH]4)cc3C)cc1)CC2` displayed an IC50 of 0.72 µM.

For the molecule `CCOc1ccc(Nc2nc(N)c3ccccc3n2)cc1`, the IC50 was determined as 1.15 µM.

As for `COc1cccc(NC(=O)c2cc(Br)cc(N3CCN(c4ccncc4)CC3)c2)c1`, the IC50 is 0.77 µM.

Molecule `COc1cc2ccccc2c(OC)c1CNCCCCCCNCc1c(OC)cc2ccccc2c1OC` displayed an IC50 of 0.99 µM.

Consider `COc1cccc2c(NN=Cc3cccc(Cl)c3)cc(C)nc12`, for which the IC50 is 0.71 µM.

On to `N#CCCN1CCN(Cc2cccc(-c3ccc(-c4nc5ccc(F)cc5[nH]4)cc3)c2)CC1`, for which the IC50 was determined as 0.6 µM.

In turn, `CC(C)N1CCC(N(Cc2ccc(-c3ccc(C(F)(F)F)cc3)cc2)C(=O)Cn2c(CCc3cccc(F)c3F)cc(=O)c3ccccc32)CC1` yielded an IC50 of 0.85 µM.

On to `CCCC(CNCc1ccccc1)CNc1cc(=O)c2ccccc2[nH]1` (centres undefined), for which the IC50 worked out at 1.02 µM.

The molecule `COc1cc(CN2CCC(NC(=O)[C@H](Cc3ccccc3)NC(=O)Nc3ccc(Oc4ccccc4)cc3)C2)ccc1O` (some centres undefined) registered an IC50 of 0.81 µM.

`CC(C)COc1ccc(Cl)cc1Cc1ccc(-c2nc3ccc(CCN4CCCC4)cc3[nH]2)o1`: the half-maximal inhibitory concentration (IC50) is 0.73 µM.

For the molecule `CN1CCN(Cc2cc(NC(=O)c3ccc(-c4ccc(Cl)cc4Cl)cc3)ccc2-c2ccccc2)CC1`, the IC50 worked out at 0.97 µM.

The molecule `CCc1c(CCNCCCCCCNCCc2ccc([N+](=O)[O-])cc2)ccc(O)c1O` returned an IC50 of 0.78 µM.

`C=CCNS(=O)(=O)c1ccc(NC(=O)C(C)Oc2ccc([N+](=O)[O-])cc2)cc1` (centres undefined) returned an IC50 of 1.22 µM.

In the case of `CCNc1cc(C(=O)N[C@@H](Cc2ccccc2)[C@H](O)CN[C@H]2C[C@@H]3CC[C@H]2C3)cc(N2CCCCS2(=O)=O)c1`, the IC50 worked out at 0.24 µM.

`CC(C)NC(=O)Cn1cc(C2CCN(CC3CCN(C(=O)/C=C/c4ccc(Cl)c(Cl)c4)CC3)CC2)c2ccccc21` showed a concentration for half-maximal inhibition (IC50) of 1.03 µM.

With `Oc1ccc2ncnc(Nc3ccc(OCc4cccc(F)c4)c(Cl)c3)c2c1`, the IC50 was 0.99 µM.

Molecule `Cc1cccc2[nH]c(-c3cccc(-c4cccc(CNCc5ccc(S(C)(=O)=O)cc5)c4)c3)nc12` had an IC50 of 0.3 µM.

Molecule `O=C(Nc1cc(Cl)cc(Cl)c1)c1cc(Cl)c(=O)n(Cc2ccc(Cl)cc2)c1` displayed an IC50 of 0.86 µM.

Turning to `COc1ccc2nccc([C@@H](O)CN3CCC(NCc4nc5c(OCc6ccccc6)cccc5[nH]4)CC3)c2c1`, the IC50 came to 0.18 µM.

For the molecule `O=C(CSc1nccn1C1CCCC1)Nc1cc(C(F)(F)F)ccc1Cl`, the IC50 came out at 0.38 µM.

`O=c1ccc2ncc(Cl)c3c2n1CC3CN1CCC(NCc2cc3c(cn2)OCCO3)CC1` (centres undefined) gave an IC50 of 0.96 µM.

The molecule `COc1ccc(OC)c(CC2c3ccc(Br)c(O)c3CCN2C)c1` (centres undefined) returned an IC50 of 0.75 µM.

For the molecule `C/C=C/COc1ccc(-c2c(C)[nH]c(C)c(Cl)c2=O)cc1`, the IC50 came out at 0.2 µM.

In turn, `O=C(NCc1cccc(C(F)(F)F)c1)C1CCCN(C(=O)c2ccc(O)c(-c3ccc(Cl)c(Cl)c3)c2)C1` (centres undefined) returned an IC50 of 0.8 µM.

For the molecule `CCc1cn2c3c(cc(C(=O)N[C@@H](Cc4ccccc4)[C@H](O)CNC(C)C)cc13)N(C)S(=O)(=O)C2`, the IC50 is 0.32 µM.

`CC(C)c1ccc(N2CCN(CCCCNC(=O)c3ccc(NC(=O)c4cc(Cl)cc(Cl)c4)cc3)CC2)cc1` displayed an IC50 of 0.16 µM.

Take `COc1ccc(CN2CCC(N3CCc4cc(NC(=O)c5cc(C)on5)ccc43)C2)cc1Cl` (centres undefined): the IC50 was 0.94 µM.

Regarding `COc1ccc2nccc([C@@H](O)CN3CCC(NC(=O)/C=C/c4ccc(Cl)c(C(F)(F)F)c4)CC3)c2c1`, the IC50 came out at 0.29 µM.

`COc1cc(Nc2nccn3c(-c4ccsc4)cnc23)cc(OC)c1OC` registered an IC50 of 0.89 µM.

`O=C(NC1CCC(CN2CCC(c3c[nH]c4ccccc34)CC2)CC1)c1cnn(-c2ccccc2)c1-c1ccccc1Cl` (centres undefined) yielded an IC50 of 0.18 µM.

Consider `CCCCN(C)CC#Cc1ccc2[nH]c(C)c(Cl)c(=O)c2c1`, for which the IC50 is 0.13 µM.

`Cc1cc(C)c(NC(=O)NC2CCN(CCCCCNC(=O)/C=C/c3ccc(Cl)c(Cl)c3)C2)c(C)c1` (centres undefined) returned an IC50 of 0.19 µM.

With `CC(C)CCNC(=O)C1Cc2c([nH]c3cc(Cl)ccc23)C2(CCN(CCc3ccccc3)CC2)N1` (centres undefined), the IC50 was 0.69 µM.

`Cc1cc2c(cc1C(F)(F)F)N(C(=O)Nc1cc(C(=O)NCCN(C)C)cc(C(F)(F)F)c1)CC2` had an IC50 of 0.73 µM.

For `COc1ccc2nccc([C@@H](O)CN3CCC(NC(=O)/C=C/c4ccnc5ccccc45)CC3)c2c1`, the IC50 worked out at 0.94 µM.

`O=C(Cc1cnc[nH]1)Nc1cccc(-c2cccc(-c3nc4ccc(F)cc4[nH]3)c2)c1` showed an IC50 of 0.78 µM.

In turn, `CN(C)CCOc1ccc(NC(=O)NC(C)(C)c2nc(-c3ccc(Cl)c(O)c3)c(-c3ccncc3)[nH]2)cc1` came in with an IC50 of 0.11 µM.

As for `Cn1nc(-c2ccc(NC(=O)Nc3cc(C(F)(F)F)ccc3F)cc2)c2cnc(NCCCCN3CCCC3)nc21`, the IC50 turned out to be 0.53 µM.

Molecule `O=C(Nc1cc(F)cc(F)c1)N1CCOC(CCN2CCC(c3ccccc3)CC2)(c2ccc(Cl)c(Cl)c2)C1` (centres undefined) registered an IC50 of 0.47 µM.

Turning to `COc1ccc2c(c1)OC(C)(C)CC2=NOS(=O)(=O)c1ccc(C)cc1`, the IC50 stood at 0.21 µM.

Take `COc1cccc(NC(=O)NCCNc2ccnc(Nc3ccc(F)cc3)n2)c1`: the IC50 amounted to 0.92 µM.

Consider `CN(C(=O)/C=C/c1c(Cl)cccc1Cl)C1CCN(CCCCCNC(=O)/C=C/c2ccc(Cl)c(Cl)c2)CC1`, for which the half-maximal inhibitory concentration (IC50) was 0.36 µM.

In turn, `NC(=O)c1cccc(C(=O)Nc2cccc(-c3cccc(-c4nc5ccccc5[nH]4)c3)c2)c1` returned an IC50 of 0.55 µM.

In turn, `Cc1ccc(NC(=O)c2ccc(CN3CCCN(Cc4cccc(O)c4)CC3)cc2)cc1C` returned an IC50 of 0.86 µM.

The molecule `NC(N)=NCCCN(Cc1ccccc1)c1ccc(Cl)cc1` registered an IC50 of 0.56 µM.

`Fc1ccc2nc(-c3cccc(-c4cccc(CN5CCN(c6ccncc6)CC5)c4)c3)[nH]c2c1` came in with an IC50 of 0.15 µM.

Regarding `COC(=O)CNC(c1ccccc1)c1cc(Br)ccc1NC(=O)c1ccccc1Br` (centres undefined), the IC50 was 0.99 µM.

`COC(=O)[C@@H](NC(=O)[C@H](Cc1ccc(OC)c(OC)c1)Nc1ccc(C#N)c2ccccc12)c1ccc(O)cc1` returned an IC50 of 0.75 µM.

Consider `COc1ccc(NC(=O)CCNc2cc(C)nc(NCCc3ccc(F)cc3)n2)cc1`, for which the IC50 is 0.85 µM.

Molecule `Cc1noc(-c2cccs2)c1C(=O)NC(C)c1cccc2ccccc12` (centres undefined) came in with an IC50 of 0.13 µM.

Consider `O=C(Nc1cccc(-c2cccc(-c3nc4ccc(C(F)(F)F)cc4[nH]3)c2)c1)c1cccnc1Cl`, for which the IC50 worked out at 0.66 µM.

The molecule `Cc1[nH]c(C)c(-c2ccc(Cl)cc2Cl)c(=O)c1Br` came in with an IC50 of 1.01 µM.

With `COc1ccc(C(C(=O)NC2CCN(C[C@H](O)c3ccnc4ccc(OC)cc34)CC2)N2CCN(Cc3ccccc3)CC2)cc1` (some centres undefined), the IC50 stood at 0.15 µM.

With `COc1ccc(NC(=O)Nc2ccc(-c3ccccc3)cc2)cc1Cn1nc(Cl)c(N2CCCNCC2)cc1=O`, the 50% inhibitory concentration (IC50) amounted to 0.36 µM.

As for `Cc1cc(Nc2ccccc2)nc(Nc2ccccc2C)n1`, the IC50 turned out to be 1.04 µM.

With `CN(C)CC(O)C(O)(c1ccccc1)c1ccc(F)cc1` (centres undefined), the IC50 is 1.15 µM.

Turning to `COc1ccccc1CNC(=O)c1cc(Br)cc(N2CCN(c3ccncc3)CC2)c1`, the IC50 was 0.95 µM.

`CCc1c[nH]c2c(N3CCCS3(=O)=O)cc(C(=O)N[C@@H](Cc3ccccc3)[C@H](O)CNC(C)(C)c3cccc(C(F)(F)F)c3)cc12`: the IC50 amounted to 0.23 µM.
